Reference: PMC4492764, “Evaluation of biomarkers for in vitro prediction of drug-induced nephrotoxicity: comparison of HK-2, immortalized human proximal tubule epithelial, and primary cultures of human proximal tubular cells” (Pharmacology Research & Perspectives, 2015)
Where a name gives a salt, the structure may show the parent alone.

Tests used:
Type in all cases: cell-based, human
[1] = tested on: NGAL; experiment: NGAL protein ELISA in hRPTECs; design: key to Upregulation of NGAL hRPTECs P: +: statistically significant increase; −: no significant increase; settings: for Upregulation of NGAL hRPTECs P: protein levels in culture medium, 72 h time point
Experimental: (§1) HK-2 cells (ATCC CRL-2190; Manassas, VA) were maintained in DMEM/F12 (Life Technologies; Sydney, NSW, Australia) supplemented with 5 μg/mL insulin, 5 μg/mL transferrin, 5 ng/mL sodium selenite (ITS; Roche; […] (passage 2) and culture kits were purchased from Lonza. […] were maintained in Renal Epithelial Cell BulletKitTM (CC-3190, Lonza) at 37°C and 5% CO2 atmosphere. Cells were passaged to 96-well plates with a density of 4000 cells/well. After 24 h culture, compounds with different concentration series were added into each well and incubated for 4, 24, 48, and 72 h. KIM-1 (DY1750), NGAL (DY1757), and M-CSF (DY216) Duo-Set® ELISA kits were purchased from R&D systems (Minneapolis, MN). Sandwich-ELISA experiments were conducted following the manufacturer's instructions with slight modifications. A 96-well microplate (MaxiSorp®, Nunc, Thermo Scientific, NSW, Australia) was coated with 100 μL of capture antibodies (diluted 1:200 in PBS) and incubated overnight. The plate was then washed twice with washing buffer (0.05% Tween 20 in PBS, pH 7.4) and blocked by adding 300 μL of blocking buffer (1% bovine serum albumin (BSA) in PBS) for 1 h at room temperature. After washing two times with PBS, 100 μL of samples (cell culture media or cell lysates) or standards were then added to each well and incubated for 2 h at room temperature. The biotinylated detection antibodies were then diluted in blocking buffer, added to each well and incubated for 2 h. Horseradish peroxidase (HRP)-labeled streptavidin (100 μL) was then added to bind to detection antibodies. To each well, 100 μL of substrate solution (1:1 mixture of H2O2 and tetramethylbenzidine) was added and incubated for 20 min before reaction termination with 50 μL of stop solution (2N H2SO4). The optical density of each well was measured at 450 nm using a POLARstar Omega plate reader (BMG Labtech). All assays were performed at least three times, with at least two technical replicates in each assay.

[2] = tested on: NGAL mRNA; experiment: NGAL mRNA qRT-PCR in hRPTECs; design: key to Upregulation of NGAL hRPTECs R: +: statistically significant increase; −: no significant increase; settings: for NGAL mRNA levels in hRPTECs: 72 h exposure; for Upregulation of NGAL hRPTECs R: mRNA levels, 72 h time point
Experimental: HK-2 cells (ATCC CRL-2190; Manassas, VA) were maintained in DMEM/F12 (Life Technologies; Sydney, NSW, Australia) supplemented with 5 μg/mL insulin, 5 μg/mL transferrin, 5 ng/mL sodium selenite (ITS; Roche; […] (passage 2) and culture kits were purchased from Lonza. […] were maintained in Renal Epithelial Cell BulletKitTM (CC-3190, Lonza) at 37°C and 5% CO2 atmosphere. Cells were passaged to 96-well plates with a density of 4000 cells/well. After 24 h culture, compounds with different concentration series were added into each well and incubated for 4, 24, 48, and 72 h. HK-2 and […] were treated with compounds for 4, 24, 48, and 72 h, then the cells were lysed and the RNA reverse transcribed with the TaqMan® Gene Expression Cells-to-CTTM Kit (Life Technologies) according to the manufacturer's instructions. […] Hs00273334_m1), Lcn2 (NGAL; Hs01008571_m1), and Csf1 (M-CSF; Hs00174164_m1). All probes span an exon-exon junction. The real-time quantitative reverse transcription PCR (qRT-PCR) was performed in a 10 μl final reaction mixture using a ViiA 7TM system (Applied Biosystems®, Sydney, NSW, Australia) based on the following thermo cycling conditions: 10 min at 95°C for one cycle, 15 sec at 95°C, 60 sec at 60°C for 40 cycles. The ViiA 7TM software was used for data analysis with Hprt1 expression used for normalization. All assays were performed at least three times, with at least two technical replicates in each assay.

[3] = tested on: KIM-1; experiment: KIM-1 protein ELISA in freshly isolated hPT cells; settings: for KIM-1 protein increase in hPT cell lysate: 24 h treatment; for KIM-1 protein upregulation in hPT cells: high doses, within 24 h; for Upregulation of KIM-1 hPT P(L): protein levels in cell lysates, table title says 72 h time point
Experimental: hPT cells were derived from whole human kidneys procured by the International Institute for the Advancement of Medicine (Edison, NJ). All tissues were scored by a pathologist as normal (i.e., derived from noncancerous, nondiseased tissue). […] Whole kidneys were perfused with Wisconsin medium and kept on ice until they arrived at the laboratory, which was usually within 24 h of removal from the donor. All buffers were continuously bubbled with 95% O2/5% CO2 and were maintained at 37°C. Minced cortical pieces from whole kidneys were subjected to collagenase digestion for 60 min, after which the supernatant was filtered through a 70-μm mesh filter to remove tissue fragments, centrifuged at 150g for 7 min, and the pellet resuspended in Dulbecco’s Modified Eagle’s Medium: […] Approximately, 5–7 × 10^6 cells were obtained per 1 g of human kidney cortical tissue. […] Composition of this supplemented medium was based on earlier work establishing optimal conditions for primary culture of rat PT cells (Lash et al., [1995]). Basal medium was a 1:1 mixture of DMEM/F12. […] Cultures were grown at 37°C in a humidified incubator under an atmosphere of 95% air/5% CO2 at pH 7.4. Cultures were grown to approximately 80–90% confluence (generally 5–6 days) prior to experiments. Cells were harvested by either scraping the flasks with a Teflon scraper or by brief incubation with Cellstripper (Cellgro, Herndon, VA) (in Ca^2+- and Mg^2+-free Hanks’ buffer). KIM-1 (DY1750), NGAL (DY1757), and M-CSF (DY216) Duo-Set® ELISA kits were purchased from R&D systems (Minneapolis, MN). Sandwich-ELISA experiments were conducted following the manufacturer’s instructions with slight modifications. A 96-well microplate (MaxiSorp®, Nunc, Thermo Scientific, NSW, Australia) was coated with 100 μL of capture antibodies (diluted 1:200 in PBS) and incubated overnight. The plate was then washed twice with washing buffer (0.05% Tween 20 in PBS, pH 7.4) and blocked by adding 300 μL of blocking buffer (1% bovine serum albumin (BSA) in PBS) for 1 h at room temperature. After washing two times with PBS, 100 μL of samples (cell culture media or cell lysates) or standards were then added to each well and incubated for 2 h at room temperature. The biotinylated detection antibodies were then diluted in blocking buffer, added to each well and incubated for 2 h. Horseradish peroxidase (HRP)-labeled streptavidin (100 μL) was then added to bind to detection antibodies. To each well, 100 μL of substrate solution (1:1 mixture of H2O2 and tetramethylbenzidine) was added and incubated for 20 min before reaction termination with 50 μL of stop solution (2N H2SO4). The optical density of each well was measured at 450 nm using a POLARstar Omega plate reader (BMG Labtech). All assays were performed at least three times, with at least two technical replicates in each assay.

[4] = tested on: NGAL; experiment: NGAL protein ELISA in HK-2 cells; design: key: +: statistically significant increase; −: no significant increase; settings: protein levels in culture medium; 72 h time point
Experimental: as §1

| Molecule | Upregulation of NGAL hRPTECs P [1] | NGAL mRNA levels in hRPTECs ([2]; 10 μmol/L, P < 0.05) | Upregulation of NGAL hRPTECs R [2] | KIM-1 protein increase in hPT cell lysate ([3]; 100 μmol/L) [fold] | KIM-1 protein upregulation in hPT cells [3] | Upregulation of KIM-1 hPT P(L) [3] | Upregulation of NGAL HK-2 P [4] | KIM-1 protein increase in hPT cell lysate ([3]; 300 μmol/L) | NGAL protein upregulation in hRPTECs ([1]; 4 h, culture medium (Fig. S5C)) | NGAL mRNA levels in hRPTECs ([2]; 100 μmol/L, P < 0.01) |
| --- | --- | --- | --- | --- | --- | --- | --- | --- | --- | --- |
| N.N.[Cl][Pt][Cl] [Cisplatin, cisplatin] | + | kept rising | + | 32 | significant upregulation | >32-fold | − |  |  |  |
| CNC(C)C1CCC(N)C(OC2C(N)CC(N)C(OC3OCC(C)(O)C(NC)C3O)C2O)O1 (stereo not drawn) [Gentamicin, gentamicin sulfate] | + |  | − |  | significant upregulation | Greater than fivefold | − | fivefold |  |  |
| Colistin sulfate | + |  | + |  | significant upregulation | >12-fold | − | 12 fold | significant upregulation | kept rising |
